Values after ≈ are worked out from the molar mass of the structure shown. Read-outs that look alike come from different tables or passages of the source.
Columns and labels:
LYSA solubility study = type: physicochemical; conditions: for solubility thermodynamic: phosphate buffer, pH 6.5, aqueous buffer, thermodynamic from solid; for LYSA of Prodrugs: aqueous solubility, 0.05M phosphate buffer pH 6.5
Protocol: LYSA study is used to determine the aqueous solubility of tested compounds. Samples were prepared in duplicate from 10 mM DMSO stock solution. After evaporation of DMSO with a centrifugal vacuum evaporator, the compounds were dissolved in 0.05M phosphate buffer (pH 6.5), stirred for one hour and shaken for two hours. After one night, the solutions were filtered using a microtiter filter plate. Then the filtrate and its 1/10 dilution were analyzed by HPLC-UV. […] The results were in μg/mL. In case the percentage of sample measured in solution after evaporation divided by the calculated maximum of sample amount was bigger than 80%, the solubility was reported as bigger than this value.

human TLR7 = target: T1, human TLR7 (Homo sapiens, UniProt Q9NYK1); experiment: HEK293-Blue-hTLR-7 cells assay (SEAP reporter); type: cell-based; conditions: for EC50: HEK293-Blue-hTLR-7 cells, SEAP reporter, 20 hrs; for Ratio (EC50(prodrug)/EC50(active form)): EC50 of prodrug over EC50 of corresponding active form
T1 sequence (Q9NYK1 27-1049): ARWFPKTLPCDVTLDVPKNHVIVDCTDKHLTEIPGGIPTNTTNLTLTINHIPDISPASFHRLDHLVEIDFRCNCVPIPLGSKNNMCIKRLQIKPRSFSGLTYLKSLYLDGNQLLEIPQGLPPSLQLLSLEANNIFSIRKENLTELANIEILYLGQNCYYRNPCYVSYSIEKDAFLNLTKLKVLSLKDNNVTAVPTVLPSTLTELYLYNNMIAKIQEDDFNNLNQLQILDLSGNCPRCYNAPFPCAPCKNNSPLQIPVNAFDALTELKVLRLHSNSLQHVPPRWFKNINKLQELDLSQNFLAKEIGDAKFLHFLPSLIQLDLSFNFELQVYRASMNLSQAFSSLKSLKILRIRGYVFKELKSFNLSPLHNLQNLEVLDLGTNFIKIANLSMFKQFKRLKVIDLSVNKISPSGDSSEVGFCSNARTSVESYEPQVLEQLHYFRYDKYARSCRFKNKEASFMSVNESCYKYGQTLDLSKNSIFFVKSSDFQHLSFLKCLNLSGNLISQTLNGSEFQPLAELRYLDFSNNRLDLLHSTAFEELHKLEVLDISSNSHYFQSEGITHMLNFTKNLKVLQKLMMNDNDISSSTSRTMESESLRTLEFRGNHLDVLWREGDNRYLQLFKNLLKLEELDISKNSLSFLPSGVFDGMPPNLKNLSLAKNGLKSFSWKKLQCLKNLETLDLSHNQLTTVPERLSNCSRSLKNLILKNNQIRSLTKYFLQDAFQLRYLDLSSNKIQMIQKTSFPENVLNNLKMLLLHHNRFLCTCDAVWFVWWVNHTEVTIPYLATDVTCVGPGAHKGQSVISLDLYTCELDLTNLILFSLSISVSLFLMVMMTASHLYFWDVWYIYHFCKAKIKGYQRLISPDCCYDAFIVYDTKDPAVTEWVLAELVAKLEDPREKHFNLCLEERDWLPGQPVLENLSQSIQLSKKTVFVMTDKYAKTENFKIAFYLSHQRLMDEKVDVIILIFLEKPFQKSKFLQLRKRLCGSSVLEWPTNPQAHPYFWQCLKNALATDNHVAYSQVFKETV
Source text: HEK293-Blue-hTLR-7 Cells Assay:
A stable HEK293-Blue-hTLR-7 cell line was purchased from InvivoGen (Cat.#: hkb-htlr7, San Diego, Calif., USA). These cells were designed for studying the stimulation of human TLR7 by monitoring the activation of NF-κB. A SEAP (secreted embryonic alkaline phosphatase) reporter gene was placed under the control of the IFN-β minimal promoter fused to five NF-κB and AP-1-binding sites. The SEAP was induced by activating NF-κB and AP-1 via stimulating HEK-Blue hTLR7 cells with TLR7 ligands. Therefore the reporter expression was regulated by the NF-κB promoter upon stimulation of human TLR7 for 20 hrs. The cell culture supernatant SEAP reporter activity was determined using QUANTI-Blue™ kit (Cat.#: rep-qbl, Invivogen, San Diego, Calif., USA) at a wavelength of 640 nm, a detection medium that turns purple or blue in the presence of alkaline phosphatase.
HEK293-Blue-hTLR7 cells were incubated at a density of 250,000˜450,000 cells/mL in a volume of 180 μL in a 96-well plate in Dulbecco's Modified Eagle's medium (DMEM) containing 4.5 g/L glucose, 50 U/mL penicillin, […], […], 2 mM L-glutamine, 10% (V/V) heat-inactivated fetal bovine serum for 24 hrs. Then the HEK293-Blue-hTLR-7 cells were incubated with addition of 20 μL test compound in a serial dilution in the presence of final DMSO at 1% and perform incubation under 37° C. in a CO2 incubator for 20 hrs. Then 20 μL of the supernatant from each well was incubated with 180 μL Quanti-blue substrate solution at 37° C. for 2 hrs and the absorbance was read at 620˜655 nm using a spectrophotometer. The signalling pathway that TLR7 activation leads to downstream NF-κB activation has been widely accepted, and therefore similar reporter assay was also widely used for evaluating TLR7 agonist (Tsuneyasu Kaisho and Takashi Tanaka, Trends in Immunology, Volume 29, Issue 7, July 2008, […]; Hiroaki Hemmi et al, Nature Immunology 3, 196-200 (2002)).
The Compounds and Examples of the present invention were tested in HEK293-hTLR-7 assay for their TLR7 agonism activity as described herein and results are listed in Table 1. […] The calculated ratio of EC50(prodrug)/EC50(active form) were within the range from 32 to about 7600.

[1] = Single dose PK study in male Wister-Han rats; type: in vivo; conditions: male, Wister-Han, rat, plasma, po, 5 mg/kg, 5 mg/kg oral dosing of active form
Protocol: The single dose PK in Male Wister-Han Rats was performed to assess pharmacokinetic properties of tested compounds. Two groups of animals were dosed via Gavage (POE) of the respective compound. […] Blood samples were placed into tubes containing EDTA-K2 anticoagulant and centrifuged at 5000 rpm for 6 min at 4° C. to separate plasma from the samples. After centrifugation, the resulting plasma was transferred to clean tubes for bioanalysis of both prodrug and active form on LC/MS/MS. In the groups that prodrug were dosed, the concentration of prodrugs in the plasma samples was under the detection limit. The “tested compound” in Table 8 was used as the internal standard for testing the metabolite (active form) of “dose compound” in vivo. The pharmacokinetic parameters were calculated using non-compartmental module of WinNonlin® Professional 6.2. The peak concentration (Cmax) was recorded directly from experimental observations. The area under the plasma concentration-time curve (AUC0-t) was calculated using the linear trapezoidal rule up to the last detectable concentration. Cmax and AUC0-last are two critical PK parameters related to the in vivo efficacy of the tested compound. Compounds with higher Cmax and AUC0-last will lead to the better in vivo efficacy.

[2] = 0.05M phosphate buffer pH 6.5, read-out: LYSA of Prodrugs
[3] = prodrug, read-out: HEK293-hTLR-7 EC50 (Prodrug)

Row | Structure (SMILES) | solubility thermodynamic (LYSA solubility study; [2]) [µg/mL] | Ratio (EC50(prodrug)/EC50(active form)) (human TLR7) | EC50 (human TLR7; [3]) [µM] | LYSA of Prodrugs (LYSA solubility study) [µg/mL] | other results
1 | CC[S@](=N)(=O)c1nc(N)c2[nH]c(=O)n(Cc3ccc(C)cc3)c2n1 (single isomer, unassigned) [Compound 43e-B] |  |  |  |  | solubility thermodynamic (LYSA solubility study; 0.05M phosphate buffer pH 6.5, read-out: LYSA of Active Forms): 13 µg/mL (≈ 37.5 µM); EC50 (human TLR7; active form, read-out: HEK293-hTLR-7 EC50 (Active form)): 0.035 µM
2 | CCCN(C)C(=O)n1c(=O)n(Cc2ccccc2)c2nc(S(=N)(=O)CCC)nc(N)c21 (single isomer, unassigned) [Example 1-A] | 315 (≈ 707 µM) | 634.3 | 42.5 |  | 
3 | CCCS(=N)(=O)c1nc(N)c2c(n1)n(Cc1ccccc1)c(=O)n2C(=O)N(C)CCOC (single isomer, unassigned) [Example 2-A] | > 600 | 43.0 | 3.7 |  | 
4 | CCCS(=N)(=O)c1nc(N)c2c(n1)n(Cc1ccccc1)c(=O)n2C(=O)N(C)CCOC (single isomer, unassigned) [Example 2-B] |  | 65.7 | 4.4 | >590 | 
5 | CCCN(C)C(=O)n1c(=O)n(Cc2ccc(C)cc2)c2nc([S@@](=N)(=O)CC)nc(N)c21 (single isomer, unassigned) [Example 43-B] | 170 (≈ 382 µM) | 2240 | 78.4 |  | 
6 | CCCN(C)C(=O)n1c(=O)n(Cc2ccc(F)cc2)c2nc(S(=N)(=O)CC)nc(N)c21 (single isomer, unassigned) [Example 45-A] | > 560 |  | 153 |  | 
7 | CCCN(C)C(=O)n1c(=O)n(Cc2ccc(F)cc2)c2nc([S@@](=N)(=O)CC)nc(N)c21 (single isomer, unassigned) [Example 45-B] | 420 (≈ 934 µM) |  | > 1000 |  | 
8 | CCN(C)C(=O)n1c(=O)n(Cc2ccc(F)cc2)c2nc(S(=N)(=O)CC)nc(N)c21 (single isomer, unassigned) [Example 46-A] |  |  | 45.5 | 205 | 
9 | CCN(C)C(=O)n1c(=O)n(Cc2ccc(F)cc2)c2nc(S(=N)(=O)CC)nc(N)c21 (single isomer, unassigned) [Example 46-B] |  |  | 45.7 | >580 | 
10 | CCCN(C)C(=O)n1c(=O)n(Cc2ccc(Br)cc2)c2nc([S@@](=N)(=O)CC)nc(N)c21 (single isomer, unassigned) [Example 47-B] | 128 (≈ 251 µM) |  | 13.1 |  | 
11 | CCN(C)C(=O)n1c(=O)n(Cc2ccc(Br)cc2)c2nc(S(=N)(=O)CC)nc(N)c21 (single isomer, unassigned) [Example 48-A] | 305 (≈ 614 µM) |  | 18.3 |  | 
12 | CCN(C)C(=O)n1c(=O)n(Cc2ccc(Br)cc2)c2nc(S(=N)(=O)CC)nc(N)c21 (single isomer, unassigned) [Example 48-B] |  |  | 20.8 | 275 | 
13 | CCCN(C)C(=O)n1c(=O)n(Cc2ccc(C)cc2)c2nc([S@@](=N)(=O)CCC)nc(N)c21 (stereo in doubt) [Example 36-B, 6-amino-N-methyl-8-oxo-N-propyl-2[S(R)-propylsulfonimidoyl]-9-(p-tolylmethyl)purine-7-carboxamide] |  |  |  | 209 | 
14 | CCN(C)C(=O)n1c(=O)n(Cc2ccc(Cl)cc2)c2nc([S@@](=N)(=O)CC)nc(N)c21 (stereo in doubt) [Example 42-B, 6-Amino-9-[(4-chlorophenyl)methyl]-N-ethyl-2-[S(R)-ethylsulfonimidoyl]-N-methyl-8-oxo-purine-7-carboxamide] |  | 578.8 | 49.2 | 335 | 
15 | CCCN(C)C(=O)n1c(=O)n(Cc2ccccc2)c2nc(S(=N)(=O)CCC)nc(N)c21 (stereo not drawn) [Example 1, 6-Amino-9-benzyl-N-methyl-8-oxo-N-propyl-2-(propylsulfonimidoyl)purine-7-carboxamide] | 290 (≈ 651 µM) | 775.4 | 50.4 |  | 
16 | CCCS(=N)(=O)c1nc(N)c2c(n1)n(Cc1ccccc1)c(=O)n2C(=O)N(C)[C@@H](C)C(=O)OCC (stereo partly drawn) [Example 17, Ethyl(2S)-2-[[6-amino-9-benzyl-8-oxo-2-(propylsulfonimidoyl)purine-7-carbonyl]-methyl-amino]propanoate] | 190 (≈ 377 µM) |  |  |  | 
17 | CCCN(C)C(=O)n1c(=O)n(Cc2ccc(F)cc2)c2nc(S(=N)(=O)CC)nc(N)c21 (stereo not drawn) [Example 45, 6-amino-2-(ethylsulfonimidoyl)-9-[(4-fluorophenyl)methyl]-N-methyl-8-oxo-N-propyl-purine-7-carboxamide] | 172 (≈ 383 µM) |  |  |  | 
18 | CCS(=O)(=O)c1nc(N)c2[nH]c(=O)n(Cc3ccc(C)cc3)c2n1 [Example S-3, reference compound] |  |  |  |  | AUC(0-t) [1]: 0.095 µM·h; Cmax [1]: 11.5 nM; concentration at 0.25 h ([1]; 0.25 h): 8.89 nM; concentration at 0.5 h ([1]; 0.5 h): 9.99 nM; concentration at 1 h ([1]; 1 h): 10.2 nM; concentration at 2 h ([1]; 2 h): 8.4 nM; concentration at 4 h ([1]; 4 h): 11.5 nM; concentration at 8 h ([1]; 8 h): 8.17 nM
